Measured values: patent US6740650B2, “Heterocyclic cytotoxic agents” (Rutgers, The State University of New Jersey, priority 2002, dated 2004)

Key:
KB3-1 (oral) = assay: MTT-microtiter plate tetrazolinium cytotoxicity assay, KB3-1; format: cell-based
HELA (cervical) = assay: MTT-microtiter plate tetrazolinium cytotoxicity assay, HELA; format: cell-based; settings: continuous exposure 3-4 days
HCT116 (colon) = assay: MTT-microtiter plate tetrazolinium cytotoxicity assay, HCT116; format: cell-based
KBH1.0 + V (H033342r.) = assay: MTT-microtiter plate tetrazolinium cytotoxicity assay, KBH1.0 + V; format: cell-based; settings: continuous exposure 3-4 days
ZR-75-1 (breast) = assay: MTT-microtiter plate tetrazolinium cytotoxicity assay, ZR-75-1; format: cell-based
KBV-1 (mdr-1) = assay: MTT-microtiter plate tetrazolinium cytotoxicity assay, KBV-1; format: cell-based
[1] = system: Human U-937 myeloid leukemia cells; assay: MTT-microtiter plate tetrazolinium cytotoxicity assay, U937; format: cell-based; settings: continuous exposure 3-4 days
Description: (§1) Test B. Inhibition of Cell Growth: MTT-microtiter Plate Tetrazolinium Cytotoxicity Assay (RPMI 8402, CPT-K5, U937, U937/CR Cells)
(§2) The cytotoxicity was determined using the MTT-microtiter plate tetrazolinium cytotoxicity assay (MTA) (See Chen A. Y. et al. Cancer Res. 1993, 53, 1332; Mosmann, T. J., J. Immunol. Methods 1983, 65, 55; and Carmichael, J. et al. Cancer Res. 1987, 47, 936). The human lymphoblast RPMI 8402 and its camptothecin-resistant variant cell line, CPT-K5 were provided by Dr. Toshiwo Andoh (Anchi Cancer Research Institute, Nagoya, Japan) (see Andoh, T.; Okada, K. “Drug resistance mechanisms of topoisomerase I drugs,” Adv. in Pharmacology 1994, 29B, 93). Human U-937 myeloid leukemia cells and U-937/CR cells were described by Rubin et al., J. Biol. Chem., 269, 2433-2439 (1994). The cytotoxicity assay was performed by using 96-well microtiter plates using 2000 cells/well, in […] of growth medium. Cells were grown in suspension at 37° C. in 5% CO2 and maintained by regular passage in RPMI medium supplemented with 10% heat-inactivated fetal bovine serum, L-glutamine (2 mM), penicillin (100U/mL), and streptomycin (0.1 mg/mL). For determination of IC50, cells were exposed continuously for 3-4 days to varying concentrations of drug, and MTT assays were performed at the end of the fourth day. […] All assays were performed at least twice in 6 replicate wells. All assays were performed under the direction of Dr. L. F. Liu, Department of Pharmacology, The University of Medicine and Dentistry of New Jersey, Robert Wood Johnson Medical School, Piscataway, N.J. Representative data is shown in Tables 2 and 3.

[2] = system: human lymphoblast RPMI 8402; assay: MTT-microtiter plate tetrazolinium cytotoxicity assay, RPMI 8402; format: cell-based; settings: continuous exposure 3-4 days
Description: as §1, §2

[3] = system: CPT-K5 (camptothecin-resistant variant of RPMI 8402); assay: MTT-microtiter plate tetrazolinium cytotoxicity assay, CPT-K5; format: cell-based; settings: Homo sapiens, continuous exposure 3-4 days
Description: as §1, §2

U-937/CR cells = assay: MTT-microtiter plate tetrazolinium cytotoxicity assay, U937/CR; format: cell-based; settings: Homo sapiens, continuous exposure 3-4 days
Description: as §1, §2

human topoisomerase I = biological target: T1, human topoisomerase I (Homo sapiens, UniProt P11387); assay: Test A. Topoisomerase I-mediated DNA cleavage assay; format: biochemical; settings: concentration relative to 2,3-dimethoxy-8,9-methylenedioxybenzo[i]phenanthridine (=1.0) producing same cleavage (approx. 10% DNA fragmentation); 30 min, 37° C.
T1 construct: unnamed fusion partner (recombinant fusion protein, T7 expression system); made in house; host or cells: E. coli
T1 sequence (P11387 1-765): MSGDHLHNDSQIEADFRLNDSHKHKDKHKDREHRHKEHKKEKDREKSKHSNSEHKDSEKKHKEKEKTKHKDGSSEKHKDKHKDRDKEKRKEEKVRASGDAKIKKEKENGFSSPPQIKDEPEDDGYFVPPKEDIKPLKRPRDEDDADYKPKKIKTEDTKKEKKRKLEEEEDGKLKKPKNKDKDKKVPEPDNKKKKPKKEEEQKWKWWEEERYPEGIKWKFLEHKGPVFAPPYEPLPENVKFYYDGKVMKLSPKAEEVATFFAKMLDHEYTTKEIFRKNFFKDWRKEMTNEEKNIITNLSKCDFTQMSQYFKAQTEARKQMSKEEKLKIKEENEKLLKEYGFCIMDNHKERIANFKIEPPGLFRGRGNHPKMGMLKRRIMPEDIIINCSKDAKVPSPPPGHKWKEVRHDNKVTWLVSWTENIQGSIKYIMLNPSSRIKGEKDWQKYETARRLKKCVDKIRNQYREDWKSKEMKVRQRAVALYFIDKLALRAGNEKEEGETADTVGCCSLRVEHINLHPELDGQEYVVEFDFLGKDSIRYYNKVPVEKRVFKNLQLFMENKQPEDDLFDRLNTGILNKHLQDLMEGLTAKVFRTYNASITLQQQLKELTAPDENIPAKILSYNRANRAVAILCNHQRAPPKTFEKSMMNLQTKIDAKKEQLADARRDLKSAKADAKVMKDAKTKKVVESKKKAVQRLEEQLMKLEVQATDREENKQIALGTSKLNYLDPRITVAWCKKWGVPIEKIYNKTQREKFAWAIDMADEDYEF
Text: Test A. Topoisomerase I-mediated DNA Cleavage Assay
Human topoisomerase I was expressed in E. Coli and isolated as a recombinant fusion protein using a T7 expression system as described previously (Makhey, D. et al., Bioorg. Med. Chem., 2000, 8, 1-11). DNA topoisomerase I was purified from calf thymus gland as reported previously (Maniatis, T., et al., J. Molecular Cloning, a Laboratory Manual, Cold Spring Harbor Laboratory, Cold Spring Harbor, N.Y., 149-185). Plasmid YepG was also purified by the alkali lysis method followed by phenol deproteination and CsCl/ethidium isopycnic centrifugation method as described (Maniatis, T.; Fritsch, E. F.; Sambrook, J. Molecular Cloning, a Laboratory Manual; Cold Spring Harbor Laboratory: Cold Spring Harbor, N.Y. 1982; pp 149-185).^102 The end-labeling of the plasmid was accomplished by digestion with a restriction enzyme followed by end-filling with Klenow polymerase as previously described (Liu, L. F.; Rowe, T. C.; Yang, L.; Tewey, K. M.; Chen, G. L. “Cleavage of DNA by mammalian topoisomerase II,” J Biol. Chem. 1983, 258, 15365).^103 Cleavage assays were performed as previously reported (B. Gatto et al. Cancer Res., 1996, 56, 2795-2800).^13 The drug and the DNA in presence of topoisomerase I was incubated for 30 minutes at 37° C. After development of the gels, typically 24-hour exposure was used to obtain autoradiograms outlining the extent of DNA fragmentation. Topoisomerase I-mediated DNA cleavage values are reported as REC, Relative Effective Concentration, i.e. concentrations relative to 2,3-dimethoxy-8,9-methylenedioxybenzo[i]phenanthridine, whose value is arbitrarily assumed as 1.0, that are able to produce the same cleavage on the plasmid DNA in the presence of human topoisomerase I. Relative potency was based upon the relative amount of drug needed to induce approximately 10% DNA fragmentation. Assays were performed under the direction of Dr. L. F. Liu, Department of Pharmacology, The University of Medicine and Dentistry of New Jersey, Robert Wood Johnson Medical School, Piscataway, N.J. Data from Test A for representative compounds of the invention is shown in Table 1.

[4] = Homo sapiens, KB 3-1, continuous exposure 3-4 days
[5] = Homo sapiens, HCT-116, continuous exposure 3-4 days
[6] = Homo sapiens, ZR-75-1, continuous exposure 3-4 days
[7] = Homo sapiens, KB-V1, continuous exposure 3-4 days

| melting point | Topoisomerase I-mediated DNA cleavage (REC, Relative Effective Concentration) (human topoisomerase I) | Compound | IC50 (KB3-1 (oral); continuous exposure 3-4 days) | IC50 (HELA (cervical)) | IC50 (HCT116 (colon); continuous exposure 3-4 days) | IC50 (KBH1.0 + V (H033342r.)) | IC50 (ZR-75-1 (breast); continuous exposure 3-4 days) | IC50 (KBV-1 (mdr-1); continuous exposure 3-4 days) | IC50 [1] | IC50 [2] | IC50 [3] | IC50 (U-937/CR cells) | IC50 (KB3-1 (oral); [4]) | IC50 (HELA (cervical); Homo sapiens, HeLa) | IC50 (HCT116 (colon); [5]) | IC50 (ZR-75-1 (breast); [6]) | IC50 (KBV-1 (mdr-1); [7]) |
| --- | --- | --- | --- | --- | --- | --- | --- | --- | --- | --- | --- | --- | --- | --- | --- | --- | --- |
| 215 to 217 °C | 10 | COc1ccc2nnc3c4cc(OC)c(OC)cc4ccc3c2c1 [Compound 61, 2,3,9-Trimethoxydibenzo[c,h]cinnoline] |  |  |  |  |  |  | 3000 nM | 4000 nM | 31000 nM | 6000 nM |  |  |  |  |  |
|  | >100 | COc1cc2ccc3c4cc(OC)c(OC)cc4nnc3c2cc1OC [Compound 19, 2,3,8,9-Tetramethoxy-dibenzo[c,h]cinnoline] |  |  |  |  |  |  | 10000 nM | 10000 nM | > 10000 nM | 20000 nM |  |  |  |  |  |
|  | 0.01 | COc1cc2ccc3c4cc5c(cc4nnc3c2cc1OC)OCO5 [Compound 14, 2,3-Dimethoxy-8,9-methylenedioxy-dibenzo[c,h]cinnoline] |  |  |  | 60 nM |  |  | 60 nM | 60 nM | 6000 nM | 3000 nM | 70 nM | 50 nM | 35 nM | 40 nM | 80 nM |
| 258 to 260 °C |  | COc1ccc2c(ccc3c4cc5c(cc4nnc23)OCO5)c1 [Compound 43, 2-Methoxy-8,9-methylenedioxydibenzo[c,h]cinnoline] |  |  |  |  |  |  | 38000 nM | > 100000 nM | 52000 nM | 30000 nM |  |  |  |  |  |
| 244 to 246 °C |  | COc1cc2ccc3c4cc(OCc5ccccc5)c(OC)cc4nnc3c2cc1OC [Compound 42, 9-Benzyloxy-2,3,8-trimethoxydibenzo[c,h]cinnoline] |  |  |  |  |  |  | > 100000 nM | 38000 nM | 61000 nM | 40000 nM |  |  |  |  |  |
| 244 to 246 °C | 2 | COc1ccc2c(c1)nnc1c3cc(OC)c(OC)cc3ccc21 [Compound 60, 2,3,8-Trimethoxydibenzo[c,h]cinnoline] |  |  |  |  |  |  | 1900 nM | 2000 nM | 4000 nM | 2500 nM |  |  |  |  |  |

Second part, the molecule before the results:

| Compound | melting point | Topoisomerase I-mediated DNA cleavage (REC, Relative Effective Concentration) (human topoisomerase I) | IC50 (KB3-1 (oral); continuous exposure 3-4 days) | IC50 (HELA (cervical)) | IC50 (HCT116 (colon); continuous exposure 3-4 days) | IC50 (KBH1.0 + V (H033342r.)) | IC50 (ZR-75-1 (breast); continuous exposure 3-4 days) | IC50 (KBV-1 (mdr-1); continuous exposure 3-4 days) | IC50 [1] | IC50 [2] | IC50 [3] | IC50 (U-937/CR cells) | IC50 (KB3-1 (oral); [4]) | IC50 (HELA (cervical); Homo sapiens, HeLa) | IC50 (HCT116 (colon); [5]) | IC50 (ZR-75-1 (breast); [6]) | IC50 (KBV-1 (mdr-1); [7]) |
| --- | --- | --- | --- | --- | --- | --- | --- | --- | --- | --- | --- | --- | --- | --- | --- | --- | --- |
| CC[C@@]1(O)C(=O)OCc2c1cc1n(c2=O)Cc2cc3ccccc3nc2-1 [CPT] |  |  | 6 nM | 4 nM | 3 nM | 7 nM | 4 nM | 6 nM |  |  |  |  |  |  |  |  |  |
| CCOc1ccc(-c2nc3ccc(-c4nc5ccc(N6CCN(C)CC6)cc5[nH]4)cc3[nH]2)cc1 [HO33342] |  |  | 250 nM | 600 nM | 220 nM | > 10000 nM | 60 nM | 3000 nM |  |  |  |  |  |  |  |  |  |
| COc1ccc2ccc3c4cc5c(cc4nnc3c2c1)OCO5 [Compound 44, 3-Methoxy-8,9-methylenedioxydibenzo[c,h]cinnoline] | 259 to 261 °C |  |  |  |  |  |  |  | 43000 nM | 500 nM | 1300 nM | 900 nM |  |  |  |  |  |
| COc1cc2nnc3c4cc(OC)c(OC)cc4ccc3c2cc1O [Compound 34, 9-Hydroxy-2,3,8-trimethoxydibenzo[c,h]cinnoline] |  |  |  |  |  |  |  |  | > 100000 nM | > 100000 nM | > 100000 nM | > 100000 nM |  |  |  |  |  |
| CC[C@]1(O)C[C@@H]2CN(CCc3c([nH]c4ccccc34)[C@@](C(=O)OC)(c3cc4c(cc3OC)N(C)[C@H]3[C@@](O)(C(=O)OC)[C@H](OC(C)=O)[C@]5(CC)C=CCN6CC[C@]43[C@@H]65)C2)C1 [VBS, Vinblastine] |  |  |  |  |  | 2.2 nM |  |  |  |  |  |  | 3 nM | 2 nM | 3 nM | 3 nM | 400 nM |
| COc1cc2ccc3c4ccccc4nnc3c2cc1OC [Compound 6, 2,3-Dimethoxy-dibenzo[c,h]cinnoline] |  | 5 |  |  |  | 5000 nM |  |  | 3000 nM | 3000 nM | 10000 nM | 3000 nM | 6000 nM | 6000 nM | 3200 nM | 4000 nM | 4000 nM |
